Experimental data reported in patent US20180319766A1, “CO-CRYSTALS OF BENZIMIDAZOLE COMPOUNDS” (FAES FARMA, S.A., priority 2015, published 2018).

Columns and labels:
[1] = Stability of the cocrystal under forced conditions of humidity and temperature (ICH), XRPD; assay type: physicochemical; conditions: 40° C.
Description: […] The solids were analyzed by XRPD every day during the first week and once a week afterwards, to detect possible crystalline transformations.

ΔpKa bilastine-coformer = assay type: physicochemical
[2] = Solubility of cocrystals in water at room temperature, relative to bilastine (HPLC); conditions: 400 mg of product in 24 ml, result in words, data only in figures
Description: Solubility of cocrystals was determined by stirring the product in water at room temperature (400 mg of product in 24 ml of water, 60 vol.). The product was previously milled in order to reduce the crystal size effect. A sample is collected and filtered using a sintered funnel (n° 3) periodically (30, 60, 180 min and after overnight). The filtered solid was immediately analyzed by XRPD, while the mother liquors are filtered through a 0.22 um filter and the concentration of Bilastine is determined by HPLC area (in some experiments where a high solubility was detected the mother liquor was diluted by a factor 10). This concentration is compared with the Bilastine concentration obtained in the same conditions in order to determine a relative solubility.
HPLC analyses were performed by duplicate on an Agilent 1100 series apparatus with a XBridge C-18 column at room temperature. 25μL sample were injected. The mobile phase (isocratic) was set as following: 52%(Methanol:aqueous octylamine 0.01M pH=7, 65:35)−42% (Acetonitrile:aqueous octylamine 0.01M pH=7, 60:40)

[3] = bilastine as zwitterion; cited from earlier work
[4] = pH range 5-8; cited from earlier work

Row | Structure (SMILES) | Time the crystalline form is stable under forced conditions (XRPD) ([1]; 75±5% RH) | Time the crystalline form is stable under forced conditions (XRPD) ([1]; 70±5% RH) | further results
1 | CCOCCn1c(C2CCN(CCc3ccc(C(C)(C)C(=O)O)cc3)CC2)nc2ccccc21.Nc1ccc(C(=O)O)cc1 [AB(VII)] | at least 1 week |  | 
2 | CCOCCn1c(C2CCN(CCc3ccc(C(C)(C)C(=O)O)cc3)CC2)nc2ccccc21.CCOCCn1c(C2CCN(CCc3ccc(C(C)(C)C(=O)O)cc3)CC2)nc2ccccc21.Nc1ccc(C(=O)O)cc1 [AB(VIII)] | at least 1 week |  | 
3 | CCOCCn1c(C2CCN(CCc3ccc(C(C)(C)C(=O)O)cc3)CC2)nc2ccccc21.O=C(O)CCCCC(=O)O [AD(I)] |  | at least 1 weeks | 
4 | CCOCCn1c(C2CCN(CCc3ccc(C(C)(C)C(=O)O)cc3)CC2)nc2ccccc21.CCOCCn1c(C2CCN(CCc3ccc(C(C)(C)C(=O)O)cc3)CC2)nc2ccccc21.O=C(O)CCCCC(=O)O [AD(III)] |  | at least 1 weeks | 
5 | CCOCCn1c(C2CCN(CCc3ccc(C(C)(C)C(=O)O)cc3)CC2)nc2ccccc21.CCOCCn1c(C2CCN(CCc3ccc(C(C)(C)C(=O)O)cc3)CC2)nc2ccccc21.O=C(O)CCCC(=O)O [GL(I)] |  | at least 4 weeks | 
6 | CCOCCn1c(C2CCN(CCc3ccc(C(C)(C)C(=O)O)cc3)CC2)nc2ccccc21.O=C(O)CCCC(=O)O [GL(V)] |  | at least 4 weeks | 
7 | O=C(O)C[C@H](O)C(=O)O [L-Malic acid] |  |  | ΔpKa bilastine-coformer (ΔpKa bilastine-coformer): 0.94
8 | CC=CC=CC(=O)O.CCOCCn1c(C2CCN(CCc3ccc(C(C)(C)C(=O)O)cc3)CC2)nc2ccccc21.CCOCCn1c(C2CCN(CCc3ccc(C(C)(C)C(=O)O)cc3)CC2)nc2ccccc21 [SO(I)] | at least 1 week |  | Solubility comparison with bilastine BLN(I) [2]: improves greatly the solubility of bilastine
9 | CCOCCn1c(C2CCN(CCc3ccc(C(C)(C)C(=O)O)cc3)CC2)nc2ccccc21.O=C(O)CCC(=O)O [SU(VI)] | at least 1 week |  | 
10 | CCOCCn1c(C2CCN(CCc3ccc(C(C)(C)C(=O)O)cc3)CC2)nc2ccccc21.CCOCCn1c(C2CCN(CCc3ccc(C(C)(C)C(=O)O)cc3)CC2)nc2ccccc21.O=C(O)CCC(=O)O [SU(VII)] | at least 1 week |  | 
11 | CCOCCn1c(C2CCN(CCc3ccc(C(C)(C)C(=O)O)cc3)CC2)nc2ccccc21 [bilastine, 2-[4-(2-{4-[1-(2-Ethoxyethyl)-1H-benzimidazol-2-yl]-1-piperidinyl}ethyl)phenyl]-2-methylpropanoic acid] |  |  | pKa of the acid function (carboxylate) [3]: 4.4; pKa of the base function (protonated amine) [3]: 8.8; Solubility [4]: around 500 μg/mL
